{
  "source": "patent JP2015013808A",
  "about": "“G2/m期停止及び細胞死を誘導するベンゾヒドラジド誘導体” (Kyushu University NUC, priority 2011, dated 2013)",
  "key": {"[1]": {"tested_on": "HFF2/T cells (normal human fibroblast line immortalized by introduction of human telomerase) [HFF2/T細胞(ヒトテロメラーゼの導入により不死化した正常ヒト線維芽細胞株)]", "test": "MTS growth inhibition assay, HFF2/T normal fibroblasts", "assay_type": "cell-based", "conditions": "48 h"}, "[2]": {"molecular_target": "T1, Cdt1-geminin binding [Cdt1-geminin結合] (Homo sapiens, UniProt O75496+Q9H211)", "T1 construct": "made in house", "T1 sequence (Q9H211 1-546)": "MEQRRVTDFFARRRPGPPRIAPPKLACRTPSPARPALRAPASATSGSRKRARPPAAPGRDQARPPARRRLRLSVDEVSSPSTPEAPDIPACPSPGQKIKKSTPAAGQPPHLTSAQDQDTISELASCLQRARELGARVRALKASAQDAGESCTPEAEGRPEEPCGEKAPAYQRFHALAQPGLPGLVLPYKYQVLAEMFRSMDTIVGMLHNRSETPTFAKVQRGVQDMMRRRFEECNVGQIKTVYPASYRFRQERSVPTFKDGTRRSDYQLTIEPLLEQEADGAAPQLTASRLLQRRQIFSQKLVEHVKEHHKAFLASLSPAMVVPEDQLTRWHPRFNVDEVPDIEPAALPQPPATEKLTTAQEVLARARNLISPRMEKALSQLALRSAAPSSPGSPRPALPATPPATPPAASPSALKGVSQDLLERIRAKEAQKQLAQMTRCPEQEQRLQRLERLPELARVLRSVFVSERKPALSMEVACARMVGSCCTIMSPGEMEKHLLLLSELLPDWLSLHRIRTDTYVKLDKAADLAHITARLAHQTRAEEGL", "T1 sequence (O75496 1-209)": "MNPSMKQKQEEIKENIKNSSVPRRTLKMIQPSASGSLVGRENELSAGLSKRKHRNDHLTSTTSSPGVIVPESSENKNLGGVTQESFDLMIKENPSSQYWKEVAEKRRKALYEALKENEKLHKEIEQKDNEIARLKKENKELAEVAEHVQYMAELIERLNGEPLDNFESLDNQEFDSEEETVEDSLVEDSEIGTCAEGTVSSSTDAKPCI", "test": "In vitro Cdt1-geminin binding inhibition assay (modified ELISA)"}, "[3]": {"tested_on": "human cancer cells [ヒトがん細胞]", "test": "FACS cell cycle analysis (summary, cell line not specified)", "assay_type": "cell-based"}, "T98G cells [T98G細胞]": {"tested_on": "T98G cells [T98G細胞]", "test": "FACS cell cycle analysis, T98G", "assay_type": "cell-based, human", "conditions": "10 μM, 24 h"}, "[4]": {"tested_on": "H1299 cells (lung cancer-derived cell line) [H1299細胞(肺がん由来細胞株)]", "test": "MTS growth inhibition assay, H1299", "assay_type": "cell-based, human", "conditions": "48 h"}, "[5]": {"tested_on": "T98G cells (glioblastoma-derived cell line) [T98G細胞(グリオブラストーマ由来細胞株)]", "test": "MTS growth inhibition assay, T98G", "assay_type": "cell-based, human", "conditions": "48 h"}, "HFF2/T cells [HFF2/T細胞]": {"tested_on": "HFF2/T cells [HFF2/T細胞]", "test": "FACS cell cycle analysis, HFF2/T normal fibroblasts", "assay_type": "cell-based, human", "conditions": "10 μM, 24 h"}, "[6]": {"tested_on": "human cancer cells [ヒトがん細胞]", "test": "Growth inhibition / cytotoxicity in cancer cell lines (summary over lines)", "assay_type": "cell-based", "conditions": "for cancer cell selectivity of growth inhibition and cytotoxicity (in words): cancer cells versus normal fibroblasts; for anticancer activity / inhibitory effect on cancer cell lines (in words): 48 h, MTS"}, "[7]": {"tested_on": "HeLa cells (cervical cancer-derived cell line) [HeLa細胞(子宮頸癌由株細胞株)]", "test": "MTS growth inhibition assay, HeLa", "assay_type": "cell-based, human", "conditions": "48 h"}},
  "note": "Read-outs that look alike come from different tables or passages of the source.",
  "data": [
    {"smiles": "CCn1c2ccccc2c2cc(/C=N/NC(=O)c3ccccc3I)ccc21", "note": "[NP-10, (E)-N'-((9-Ethyl-9H-carbazol-3-yl)methylene)-2-iodobenzohydrazide]", "values": [
      {"measurement": "concentration needed for 50% growth inhibition of HFF2/T relative to HeLa", "setting": "[1]; HFF2/T versus HeLa", "value": "~10", "unit": "fold"},
      {"measurement": "growth inhibition / toxicity toward normal fibroblasts or normal cells (in words)", "setting": "[1]", "value": "正常線維芽細胞に対する増殖抑制効果は低い"},
      {"measurement": "Cdt1-geminin binding inhibitory activity (in words)", "setting": "[2]", "value": "Cdt1-geminin結合の阻害活性は示さない"},
      {"measurement": "cell cycle phase inhibited", "setting": "[3]", "value": "主にM期の進行阻害"},
      {"measurement": "cell cycle phase inhibited", "setting": "[3]; listed as 2-iodo体", "value": "主にM期の進行阻害"},
      {"measurement": "effect on cell cycle", "setting": "T98G cells [T98G細胞]", "value": "主にS期で停止"},
      {"measurement": "50% growth inhibitory concentration", "setting": "[4]", "value": "数"},
      {"measurement": "50% growth inhibitory concentration", "setting": "[5]", "value": "数"},
      {"measurement": "effect on cell cycle progression", "setting": "HFF2/T cells [HFF2/T細胞]", "value": "細胞周期進行に影響を与えなかった"},
      {"measurement": "effect on cell cycle progression", "setting": "HFF2/T cells [HFF2/T細胞]; listed as 2-iodo体", "value": "正常細胞の細胞周期の進行に影響を与えず"},
      {"measurement": "cancer cell selectivity of growth inhibition and cytotoxicity (in words)", "setting": "[6]", "value": "がん細胞選択的に細胞増殖を阻害し、細胞毒性を発揮した"},
      {"measurement": "cancer cell selectivity of growth inhibition and cytotoxicity (in words)", "setting": "[6]; listed as 2-iodo体", "value": "がん細胞選択的に細胞増殖を阻害し、細胞毒性を発揮する"},
      {"measurement": "cancer cell selectivity of growth inhibition and cytotoxicity (in words)", "setting": "[6]; listed as 2-ヨード体", "value": "がん細胞に対して選択的に毒性を発揮する"},
      {"measurement": "concentration that inhibits growth of human cancer cells", "setting": "[6]; human cancer cells, lines not specified", "value": "数"},
      {"measurement": "cell death", "setting": "[6]; human cancer cells, several μM", "value": "細胞死"},
      {"measurement": "50% growth inhibitory concentration", "setting": "[7]", "value": "数"}
    ]},
    {"smiles": "CCn1c2ccccc2c2cc(C=O)ccc21", "note": "[Y-R1, N-ethylcarbazole-3-carboxaldehyde, reference compound]", "values": [
      {"measurement": "cancer cell selectivity of growth inhibition and cytotoxicity (in words)", "setting": "[6]", "value": "そのような効果は認められなかった"}
    ]},
    {"smiles": "CCn1c2ccccc2c2cc(/C=N/NC(=O)c3cccc(I)c3)ccc21", "note": "[NP-13, (E)-N'-((9-Ethyl-9H-carbazol-3-yl)methylene)-3-iodobenzohydrazide]", "values": [
      {"measurement": "anticancer activity / inhibitory effect on cancer cell lines (in words)", "setting": "[6]", "value": "抗がん活性を失ってしまう"},
      {"measurement": "anticancer activity / inhibitory effect on cancer cell lines (in words)", "setting": "[6]; listed as 3-iodo体", "value": "抗がん活性が比較的低く"}
    ]},
    {"smiles": "CCn1c2ccccc2c2cc(/C=N/NC(=O)c3ccc(O)cc3O)ccc21", "note": "[(E)-N'-((9-エチル-9H-カルバゾール-3-イル)メチレン)-2,4-ジヒドロキシベンゾヒドラジド]", "values": [
      {"measurement": "toxicity toward certain cancer cell lines (in words)", "setting": "[6]; certain cancer cell lines, not specified", "value": "ある種のがん細胞株に対する毒性が低下する"}
    ]},
    {"smiles": "NNC(=O)c1ccccc1I", "note": "[Y-R2, 2-iodobenzohydrazide, reference compound]", "values": [
      {"measurement": "cancer cell selectivity of growth inhibition and cytotoxicity (in words)", "setting": "[6]", "value": "そのような効果は認められなかった"}
    ]},
    {"smiles": "CCn1c2ccccc2c2cc(/C=N/NC(=O)c3ccccc3C)ccc21", "note": "[HND-007, (E)-N'-((9-Ethyl-9H-carbazol-3-yl)methylene)-2-methylbenzohydrazide]", "values": [
      {"measurement": "growth inhibition / toxicity toward normal fibroblasts or normal cells (in words)", "setting": "[1]", "value": "正常線維芽細胞に対しても高い毒性を示す"},
      {"measurement": "growth inhibition / toxicity toward normal fibroblasts or normal cells (in words)", "setting": "[1]; listed as 2- methyl体", "value": "正常細胞に対しても高い毒性を示す場合がある"},
      {"measurement": "cell cycle phase inhibited", "setting": "[3]", "value": "主にM期の進行阻害を行っているものと予想される"},
      {"measurement": "anticancer activity / inhibitory effect on cancer cell lines (in words)", "setting": "[6]; listed as 2- methyl体", "value": "がん細胞株に対する抑制効果を高める"},
      {"measurement": "anticancer activity / inhibitory effect on cancer cell lines (in words)", "setting": "[6]; listed as (E)-N'-((9-エチル-9H-カルバゾール-3-イル)メチレン)-2-メチルベンゾヒドラジド", "value": "殺細胞性が高い"},
      {"measurement": "cancer cell selectivity of growth inhibition and cytotoxicity (in words)", "setting": "[6]", "value": "選択性は低く"}
    ]},
    {"smiles": "CCn1c2ccccc2c2cc(/C=N/NC(=O)c3ccc(I)cc3)ccc21", "note": "[NP-14, (E)-N'-((9-Ethyl-9H-carbazol-3-yl)methylene)-4-iodobenzohydrazide]", "values": [
      {"measurement": "growth inhibition / toxicity toward normal fibroblasts or normal cells (in words)", "setting": "[1]", "value": "正常線維芽細胞に対しても高い毒性を示す"},
      {"measurement": "growth inhibition / toxicity toward normal fibroblasts or normal cells (in words)", "setting": "[1]; listed as 4-iodo体", "value": "正常線維芽細胞に対しても高い毒性を示しうる"},
      {"measurement": "Cdt1-geminin binding inhibitory activity (in words)", "setting": "[2]; listed as 4-iodo体", "value": "Cdt1-gemininの試験管内での結合を阻害しうる"},
      {"measurement": "Cdt1-geminin binding inhibitory activity (in words)", "setting": "[2]; listed as 4-ヨード体", "value": "Cdt1-geminin結合阻害活性を持ち"},
      {"measurement": "IC50", "setting": "[2]; read-out: 50% binding inhibitory concentration, Cdt1-geminin", "value": "~40", "unit": "µM"},
      {"measurement": "anticancer activity / inhibitory effect on cancer cell lines (in words)", "setting": "[6]", "value": "NP-10と同等あるいはより高い抗がん活性を示す"},
      {"measurement": "anticancer activity / inhibitory effect on cancer cell lines (in words)", "setting": "[6]; listed as 4-iodo体", "value": "2-iodo体と同等、あるいはより高い抗がん活性を示す"},
      {"measurement": "anticancer activity / inhibitory effect on cancer cell lines (in words)", "setting": "[6]; listed as 4-ヨード体", "value": "抗がん活性も示した"},
      {"measurement": "cancer cell selectivity of growth inhibition and cytotoxicity (in words)", "setting": "[6]", "value": "がん細胞選択性は低下していた"}
    ]}
  ]
}
